Earlier results as cited in patent US9185913B2, “10H-benzo[g]pteridine-2,4-dione derivatives, method for the production thereof, and use thereof” (TRIOPTOTEC GMBH, priority 2011, dated 2015).

Key:
microorganisms [1] = tested on: microorganisms
microorganisms [2] = tested on: microorganisms; remark: listed apart in the source

| Structure (SMILES) | Inactivation of microorganisms (microorganisms [1]) | Affinity for microorganisms (microorganisms [2]) |
| --- | --- | --- |
| Cc1cc2nc3c(=O)[nH]c(=O)nc-3n(C[C@H](O)[C@H](O)[C@H](O)CO)c2cc1C [riboflavin] | inadequate | low |
| CC(=O)OC[C@@H](OC(C)=O)[C@@H](OC(C)=O)[C@H](Cn1c2nc(=O)[nH]c(=O)c-2nc2cc(C)c(C)cc21)OC(C)=O [tetraacetylriboflavin] | inadequate | low |
